Each structure is given as a SMILES string. The source made the active and inactive calls. The calls are words filed in the database; no cut-off is given here.

Data set [1] deals with GT1-7. Nature of the data set: Antiprion activity in human transmissible spongiform encephalopathies agent Fukuoka-1 prion infected GT1-7 cells assessed as proteinase K-resistant proteins at 10 uM after 3 days Western blotting analysis relative to control. It is filed as cell-based. (Immunoblotting shows a protein as a band on a membrane.)
Data set [2] is filed under the species Mus musculus. In words: Effect on PrPc expression level in mouse GT1-7 at 2 uM after 3 days by Western blot method.
Data set [3] in a line: Antiprion activity in human transmissible spongiform encephalopathies agent Fukuoka-1 prion infected GT1-7 cells assessed as proteinase K-resistant proteins after 3 days Western blotting analysis. In kind it is cell-based. Particulars: GT1-7, 72 h.
The species entered for data set [4] is Mus musculus. In words: Effect on PrPc expression level in mouse GT1-7 at 10 uM after 3 days by Western blot method.
Data set [5] can be described thus: Cytotoxicity against mouse GT1-7 cells at 2 uM. In kind it is cell-based. Particulars: gt1-7, 2 µM.
The species entered for data set [6] is Mus musculus. Nature of the data set: Binding affinity to mouse PrPC by surface plasmon resonance. For orientation: SPR reads the build-up and loss of mass on a sensor chip optically.

Regarding `O=C(Cn1ccnc1)Nc1ccc(Cc2ccc(NC(=O)Cn3ccnc3)cc2)cc1`, the Activity in data set [1] was found to be 167%.

In the case of `CC(C)(C)C(c1ccc(NC(=O)CN2CCCC2)cc1)c1ccc(NC(=O)CN2CCCC2)cc1`, the result in data set [2] was inactive. For the same compound, the IC50 (as a rule, the point on the concentration scale where inhibition reaches its midpoint) in data set [3] was determined as 790 nM.

Consider `O=C(CN1CCCC1)Nc1ccc(CCc2ccc(NC(=O)CN3CCCC3)cc2)cc1`, for which the Activity in data set [1] was found to be 40%.

Regarding `O=C(Nc1ccc(Cc2ccc(NC(=O)[C@@H]3CCCN3)cc2)cc1)[C@@H]1CCCN1`, the Activity in data set [1] came out at 25%.

Take `O=C(CN1CCCC1)Nc1ccc2c(c1)Cc1cc(NC(=O)CN3CCCC3)ccc1-2`: the Activity in data set [1] is 45%.

As for `O=C(CN1CCCC1)Nc1ccc(Cc2ccc(NC(=O)CN3CCOCC3)cc2)cc1`, in data set [1], the Activity was 77%.

Take `CN(C)[C@H]1CCN(CC(=O)Nc2ccc(Cc3ccc(NC(=O)CN4CC[C@H](N(C)C)C4)cc3)cc2)C1`: in data set [1], the Activity amounted to 34%. In addition, the outcome in data set [4] was inactive.

Regarding `CCN(CC)CC(=O)Nc1ccc(Cc2ccc(NC(=O)CN(CC)CC)cc2)cc1`, in data set [1], the Activity amounted to 23%. The result in data set [4] was inactive.

For `O=C(CN1CC[C@H](F)C1)Nc1ccc(Cc2ccc(NC(=O)CN3CC[C@H](F)C3)cc2)cc1`, in data set [1], the Activity amounted to 112%.

`O=C(CN1CCC[C@@H]1CO)Nc1ccc(Cc2ccc(NC(=O)CN3CCC[C@@H]3CO)cc2)cc1`: in data set [1], the Activity turned out to be 75%.

In the case of `O=C(CN1C(=O)CCC1=O)Nc1ccc(Cc2ccc(NC(=O)CN3C(=O)CCC3=O)cc2)cc1`, the Activity in data set [1] amounted to 90%.

For `O=C(CN1CC[C@@H](F)C1)Nc1ccc(Cc2ccc(NC(=O)CN3CC[C@@H](F)C3)cc2)cc1`, in data set [1], the Activity amounted to 93%.

As for `NCC(=O)Nc1ccc(Cc2ccc(NC(=O)CN3CCCC3)cc2)cc1`, the Activity in data set [1] came to 62%.

Consider `O=C(CN1CCCC1)Nc1cccc(Cc2cccc(NC(=O)CN3CCCC3)c2)c1`, for which the Activity in data set [1] came out at 20%. The result in data set [4] was inactive.

Take `COC(=O)[C@@H]1CCCN1CC(=O)Nc1ccc(Cc2ccc(NC(=O)CN3CCC[C@H]3C(=O)OC)cc2)cc1`: the Activity in data set [1] was found to be 61%.

Take `O=C(CN1CCCC1)Nc1ccc(C(=O)c2ccc(NC(=O)CN3CCCC3)cc2)cc1`: in data set [1], the Activity amounted to 24%. The outcome in data set [4] was inactive.

Regarding `COc1cc(-c2ccc(NC(=O)CN3CCCC3)c(OC)c2)ccc1NC(=O)CN1CCCC1`, the Activity in data set [1] was found to be 42%.

Regarding `O=C(CC1CCCC1)Nc1ccc(Cc2ccc(NC(=O)CC3CCCC3)cc2)cc1`, in data set [1], the Activity is 86%.

On to `O=C(CN1CCCC1)Nc1ccc(Cc2ccc(NC(=O)CN3CCC[C@@H]3CO)cc2)cc1`, for which, in data set [1], the Activity was found to be 44%. Also, the outcome in data set [4] was inactive.

For the compound `O=C(CN1CCCC1)Nc1ccc(Cc2ccc(NC(=O)CN3CC[C@@H](O)C3)cc2)cc1`, the Activity in data set [1] was found to be 43%.

Take `Nc1ccc(Cc2ccc(N)cc2)cc1`: the Activity in data set [1] worked out at 86%.

With `Cc1cc(Cc2cc(C)c(NC(=O)CN3CCCC3)c(C)c2)cc(C)c1NC(=O)CN1CCCC1`, the Activity in data set [1] was 22%. The outcome in data set [4] was inactive.

As to `O=C(CN1CCCC1)Nc1ccc(C(O)c2ccc(NC(=O)CN3CCCC3)cc2)cc1`, the Activity in data set [1] came to 62%.

Turning to `O=C(CN1CCC[C@H]1C(F)(F)F)Nc1ccc(Cc2ccc(NC(=O)CN3CCC[C@H]3C(F)(F)F)cc2)cc1`, in data set [1], the Activity stood at 85%.

On to `CC(=O)Nc1ccc(Cc2ccc(NC(=O)CN3CCCC3)cc2)cc1`, for which, in data set [1], the Activity was found to be 91%.

Turning to `CC(C)(c1ccc(NC(=O)CN2CCCC2)cc1)c1cccc(C(C)(C)c2ccc(NC(=O)CN3CCCC3)cc2)c1`, the IC50 in data set [3] is 830 nM.

For `O=C(CN1CCC[C@H]1CO)Nc1ccc(Cc2ccc(NC(=O)CN3CCC[C@H]3CO)cc2)cc1`, in data set [1], the Activity was 91%.

Turning to `NCC(=O)Nc1ccc(Cc2ccc(NC(=O)CN)cc2)cc1`, the Activity in data set [1] stood at 102%.

`Nc1ccccc1Sc1nc(N)c(N)c(-c2ccco2)c1N`: the result in data set [1] was inactive.

In the case of `O=C(CNC1CCCC1)Nc1ccc(Cc2ccc(NC(=O)CNC3CCCC3)cc2)cc1`, in data set [1], the Activity was 26%.

`O=C(CN1CCCC1)Nc1ccc(Cc2cccc(NC(=O)CN3CCCC3)c2)cc1`: the Activity in data set [1] turned out to be 19%. Besides, the outcome in data set [4] was inactive.

`O=C(CN1CCCC1)Nc1ccc(Cc2ccc(NC(=O)CN3CCC[C@H]3CO)cc2)cc1`: the Activity in data set [1] was found to be 47%. In addition, the outcome in data set [4] was inactive.

For the compound `O=C(CN1CC[C@H](O)C1)Nc1ccc(Cc2ccc(NC(=O)CN3CC[C@H](O)C3)cc2)cc1`, the Activity in data set [1] was determined as 90%.

Consider `O=C(CN1CC[C@@H](O)C1)Nc1ccc(Cc2ccc(NC(=O)CN3CC[C@@H](O)C3)cc2)cc1`, for which the Activity in data set [1] amounted to 108%.

As to `CC(C)N(CC(=O)Nc1ccc(Cc2ccc(NC(=O)CN(C(C)C)C(C)C)cc2)cc1)C(C)C`, in data set [1], the Activity stood at 20%.

Consider `CC(c1ccccc1)(c1ccc(NC(=O)CN2CCCC2)cc1)c1ccc(NC(=O)CN2CCCC2)cc1`, for which the IC50 in data set [3] was 660 nM.

With `O=C(Cn1cccn1)Nc1ccc(Cc2ccc(NC(=O)Cn3cccn3)cc2)cc1`, in data set [1], the Activity amounted to 106%.

On to `O=C(CN1CCCC1)Nc1ccc(NC(=O)CN2CCCC2)cc1`, for which the Activity in data set [1] turned out to be 88%.

Consider `CN(C(=O)CN1CCCC1)c1ccc(Cc2ccc(N(C)C(=O)CN3CCCC3)cc2)cc1`, for which, in data set [1], the Activity amounted to 77%.

Take `O=C(CN1CCCC1)Nc1ccc(Sc2ccc(NC(=O)CN3CCCC3)cc2)cc1`: the Activity in data set [1] is 22%. Further, in data set [4], the outcome was inactive.

With `O=C(CN1CCCCCC1)Nc1ccc(Cc2ccc(NC(=O)CN3CCCCCC3)cc2)cc1`, in data set [1], the Activity was 29%. Also, the result in data set [4] was inactive.

Take `COc1ccccc1C(c1ccc(NC(=O)CN2CCCC2)cc1)c1ccc(NC(=O)CN2CCCC2)cc1`: the half-maximal inhibitory concentration (IC50) in data set [3] turned out to be 580 nM.

Take `CN(C)CC(=O)Nc1ccc(Cc2ccc(NC(=O)CN(C)C)cc2)cc1`: in data set [1], the Activity was 58%.

For the compound `O=C(CN1CCCC1)NCCc1ccc(NC(=O)CN2CCCC2)cc1`, the Activity in data set [1] came out at 86%.

For the compound `O=C(CN1CCOCC1)Nc1ccc(Cc2ccc(NC(=O)CN3CCOCC3)cc2)cc1`, the Activity in data set [1] came out at 93%.

In the case of `O=C(CN1CCCC1)Nc1ccc(C(c2ccc(NC(=O)CN3CCCC3)cc2)C2CCCCCC2)cc1`, in data set [5], the Activity entry is given as “Non-toxic”. In data set [2], the result was inactive. In addition, in data set [3], the IC50 was found to be 510 nM.

In the case of `O=C(CN1CCCC1)Nc1ccc(Oc2ccc(NC(=O)CN3CCCC3)cc2)cc1`, the Activity in data set [1] turned out to be 35%.

As for `O=C(CN1CCCC1)Nc1ccc(Cc2ccc(NC(=O)CN3CCCC3)c(Cl)c2)cc1Cl`, the Activity in data set [1] is 38%.

`O=C(CN1CCCC1)Nc1ccc(C(c2ccc(F)cc2)(c2ccc(NC(=O)CN3CCCC3)cc2)C(F)(F)F)cc1` displayed an RU in data set [6] of 32. Moreover, the Activity result in data set [5] was “Non-toxic”. In addition, in data set [2], the outcome was inactive. The IC50 in data set [3] is 510 nM.

Turning to `CCCCNCC(=O)Nc1ccc(Cc2ccc(NC(=O)CNCCCC)cc2)cc1`, the Activity in data set [1] came out at 24%.

Turning to `CCN(CC)CCCC(C)Nc1c2ccc(Cl)cc2nc2ccc(OC)cc12` (configuration not stated) [QUINACRINE], the IC50 in data set [3] is 1100 nM.

For `O=C(CN(C1CCCCC1)C1CCCCC1)Nc1ccc(Cc2ccc(NC(=O)CN(C3CCCCC3)C3CCCCC3)cc2)cc1`, the Activity in data set [1] stood at 106%.

As for `O=C(CN1CCCC1)Nc1ccc(Cc2ccc(NC(=O)CN3CCCC3)cc2)cc1`, in data set [1], the Activity stood at 25%. In addition, in data set [6], the RU came to 15. The IC50 in data set [3] was found to be 1400 nM.

Regarding `Nc1ccc(Cc2ccc(NC(=O)CN3CCCC3)cc2)cc1`, the Activity in data set [1] is 75%.

`O=C(CN1CCCC1)Nc1ccc(Cc2ccc(NC(=O)CN3CC[C@H](O)C3)cc2)cc1`: the Activity in data set [1] stood at 47%.

Take `CC(C)(C(=O)Nc1ccc(Cc2ccc(NC(=O)C(C)(C)N3CCCC3)cc2)cc1)N1CCCC1`: the Activity in data set [1] came out at 45%.

Take `O=C(CN1CCCC1)Nc1cccc2c(NC(=O)CN3CCCC3)cccc12`: in data set [1], the Activity was found to be 110%.

Turning to `O=C(CN1CCCC1)Nc1ccc(S(=O)(=O)c2ccc(NC(=O)CN3CCCC3)cc2)cc1`, the Activity in data set [1] is 17%. Also, in data set [4], the outcome was inactive.

For `c1cc(NCCN2CCCC2)ccc1Cc1ccc(NCCN2CCCC2)cc1`, the Activity in data set [1] was 28%.

Turning to `O=C(CN1CCCCC1)Nc1ccc(Cc2ccc(NC(=O)CN3CCCCC3)cc2)cc1`, the Activity in data set [1] amounted to 24%. Besides, in data set [4], the outcome was inactive.

`CC(C)(c1ccc(NC(=O)CN2CCCC2)cc1)c1ccc(C(C)(C)c2ccc(NC(=O)CN3CCCC3)cc2)cc1`: in data set [3], the IC50 was determined as 690 nM.

For `CC(=O)Nc1ccc(Cc2ccc(NC(C)=O)cc2)cc1`, the Activity in data set [1] is 84%.

For `Nc1ccc(/N=N/c2ccccc2)c(N)c1`, in data set [1], the outcome was inactive.

For the compound `COC(=O)[C@H]1CCCN1CC(=O)Nc1ccc(Cc2ccc(NC(=O)CN3CCC[C@@H]3C(=O)OC)cc2)cc1`, in data set [1], the Activity was 112%.

In the case of `O=C(Nc1ccc(Cc2ccc(NC(=O)c3ccccn3)cc2)cc1)c1ccccn1`, in data set [1], the Activity turned out to be 122%.

Regarding `CN(C)[C@@H]1CCN(CC(=O)Nc2ccc(Cc3ccc(NC(=O)CN4CC[C@@H](N(C)C)C4)cc3)cc2)C1`, the Activity in data set [1] amounted to 31%. Besides, the outcome in data set [4] was inactive.

As for `O=C(CN1CCCC1)Nc1ccccc1NC(=O)CN1CCCC1`, the Activity in data set [1] was 82%.

Consider `O=C(CN1CCCCC1)Nc1ccc(Cc2ccc(NC(=O)CN3CCCC3)cc2)cc1`, for which the Activity in data set [1] is 29%. Also, the outcome in data set [4] was inactive.

For `Nc1c(/N=N/c2ccc(-c3ccc(/N=N/c4cc(S(=O)(=O)O)c5ccccc5c4N)cc3)cc2)cc(S(=O)(=O)O)c2ccccc12` [CONGO RED], the IC50 in data set [3] was 5500 nM.

As to `CCCN(CCC)CC(=O)Nc1ccc(Cc2ccc(NC(=O)CN(CCC)CCC)cc2)cc1`, the Activity in data set [1] came out at 48%.

(Values after ChEMBL document CHEMBL1681638, “Synthesis of GN8 derivatives and evaluation of their antiprion activity in TSE-infected cells” (Bioorg Med Chem Lett, 2011).)
